Experimental data published in patent US20250281424A1 (New York Blood Center, Inc, priority 2020, published 2025).

Target: T1, human PF4 (Homo sapiens, UniProt P02776)
T1 construct: PF4 is a 70 amino acid, lysine-rich 7.8 kDa platelet-specific protein; made in house; host or cells: Escherichia coli BL21DE3 pLysS (pT7-7) and/or Drosophila S2 cells
T1 sequence (P02776 32-101): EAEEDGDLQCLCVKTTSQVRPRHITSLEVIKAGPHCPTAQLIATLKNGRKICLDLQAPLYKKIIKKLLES
Experiment: Inhibition of PF4 tetramer formation (BS3 cross-linking, SDS-PAGE)
Assay type: biochemical
Details: for inhibition at 1 µM: 1 μM inhibitor; for inhibition at 1 µM / inhibition at 3 µM / inhibition at 5 µM / inhibition at 10 µM: read-out: % inhibition of PF4 tetramer formation at single concentration of inhibitor; for inhibition at 3 µM: 3 μM inhibitor (column A); for inhibition at 5 µM: 5 μM inhibitor; for inhibition at 10 µM: 10 μM inhibitor (column A); for IC50: read-out: IC50 of PF4 tetramer formation inhibition
Method: Compounds of Examples 1-38, 65-301, 303, 305, 307, 309, 311, 313, 314, 316, and 318-404 were tested using SDS PAGE analysis of BS3 crosslinked PF4 for their ability to prevent PF4 tetramer formation. […] See, Suvarna et al., Throm. Res, 122:211-220 (2008), which is hereby incorporated by reference, at least for a detailed description of this technique.
cDNA encoding human PF4 was cloned into the plasmid μMT/BiPN5-His A (Invitrogen Corp., Carlsbad CA) for expression in the Drosophila Expression System (Invitrogen, Carlsbad, CA). Cloning was performed using Bg1 II and Age I cloning sites. A hexanucleotide encoding Bg1 II site was then eliminated by site-directed mutagenesis so that the expressed protein contained full-length wild type (wt) PF4 or PF4^K50E with an identical sequence as their counterparts expressed in E. coli. See, method described in Sachais et al (Sachais, B. S. et al. (2012). Blood 119(25): 5955-5961). PF4 expression was induced by adding copper sulfate (0.5 mM). The induced S2 cells were incubated in serumfree Insect-Xpress™ media (Lonza, Walkersville, MD) for 3-5 days; supernatants were collected, sodium azide (0.02% final concentration) and EDTA (2.5 mM final concentration) were added, and the media were filtered through an Express® PLUS 0.22 μm filter (Millipore Corp., Billerica, MA).
Wild-type (WT) human PF4 in the pT7-7 vector (Novagen, Madison, WI) was expressed in the Escherichia coli strain BL21DE30 pLysS (Stratagene, La Jolla, CA), and purified and characterized as described by Rauova et al. (Rauova, L. et al. (2006). Blood 107(6): 2346-2353) and Park et al., (Blood, 75:1290-1295 (1990)), which are hereby incorporated by reference. Briefly, recombinant protein was isolated from the supernatant of the bacterial lysate by affinity chromatography using a HiTrap high-performance (HP) affinity column. WT PF4 was purified from the media on a heparin HiTrap® column on an ÄTKAPrime™ system (GE Healthcare) at 4° C. in Tris (10 mM), EDTA (1 mM), and pH 8 buffer. Media was loaded in buffer containing NaCl (0.5 M) and PF4 was eluted at 1.8 M NaCl using a linear gradient. Fractions containing purified PF4 as detected by silver staining of 12% NuPAGE Bis-Tris gels (Invitrogen) were pooled, concentrated and buffer exchanged into 50 mM HEPES, 0.5 M NaCl, pH—7.2 using an Amicon® Ultra centrifugal filter (3K NMWL, Millipore Corp). Protein was quantified using a BCA assay.
Compounds of Examples 1-38, 65-196, and 209-228 were then tested for their ability to inhibit PF4 tetramer formation using a cross-linking assay as described in Rauova cited above. Specifically, hPF4 (10 μg/ml) in phosphate-buffered saline (PBS) was incubated at 37° C. for 15 min in the absence of the antagonistic compounds (control sample) and presence of compounds. Cross-linking and SDS-PAGE analysis were then performed as described in “Analysis of PF4 multimerization” of Rauova. The relative amounts of PF4 in each of the monomer, dimer, trimer and tetramer form were calculated by analyzing the samples on a 12% SDS-polyacrylamide gel under reducing conditions. Bands were quantified using the Kodak ID Image Analysis system (Kodak, Rochester, NY). The SigmaMarker™ reagent served as the molecular weight standard. Data was compiled and bar graphed as % PF4 for the tetramer, trimer, dimer, and monomer as a function of concentration for the test and control samples.
This experiment was performed in a manner similar to experiment 1, but PF4 (10 μg/ml) in PBS was independently incubated with compounds of Examples 1-38, 65-196, and 209-228 for 60 min at room temperature, followed by the addition of cross-linking reagent bis(sulfosuccinimidyl)suberate (0.2 mM) for 30 min at room temperature. The reaction was stopped by adding NuPAGE® lithium dodecyl sulfate (LDS) sample buffer, and denatured by heating to 70° C. for 10 min according to the manufacturer's instructions. […]

SMILES | inhibition at 1 µM [%] | inhibition at 3 µM [%] | inhibition at 5 µM [%] | inhibition at 10 µM [%] | IC50 [µM]
O=C(NC1CC1)C1C(=O)c2ccc(C#Cc3ccc4c(c3)C(=O)C(C(=O)NC3CC3)C4=O)cc2C1=O (stereo not drawn) [Example 300, N-cyclopropyl-5-{2-[2-(cyclopropylcarbamoyl)-1,3-dioxo-2,3-dihydro-1H-inden-5-yl]ethynyl}-1,3-dioxo-2,3-dihydro-1H-indene-2-carboxamide] | 22 | 32 |  |  | 
O=C(NCC1CCS(=O)(=O)C1)C1C(=O)c2ccc(Oc3ccc4c(c3)C(=O)C(C(=O)NCC3CCS(=O)(=O)C3)C4=O)cc2C1=O (stereo not drawn) [Example 367, N-[(1,1-dioxo-1λ^6-thiolan-3-yl)methyl]-5-[(2-{[(1,1-dioxo-1λ^6-thiolan-3-yl)methyl]carbamoyl}-1,3-dioxo-2,3-dihydro-1H-inden-5-yl)oxy]-1,3-dioxo-2,3-dihydro-1H-indene-2-carboxamide] | 30 | 77 |  |  | 
O=C(NCc1ccccc1)C1C(=O)c2ccc(S(=O)(=O)c3ccc4c(c3)C(=O)C(C(=O)NCc3ccccc3)C4=O)cc2C1=O (stereo not drawn) [Example 93, N-benzyl-5-{[2-(benzylcarbamoyl)-1,3-dioxo-2,3-dihydro-1H-inden-5-yl]sulfonyl}-1,3-dioxo-2,3-dihydro-1H-indene-2-carboxamide] |  |  | 70 | 75 | 
COCCOCC(=O)C1C(=O)c2ccc(Oc3ccc4c(c3)C(=O)C(C(=O)COCCOC)C4=O)cc2C1=O (stereo not drawn) [Example 396, 2-[2-(2-methoxyethoxy)acetyl]-5-({2-[2-(2-methoxyethoxy)acetyl]-1,3-dioxo-2,3-dihydro-1H-inden-5-yl}oxy)-2,3-dihydro-1H-indene-1,3-dione] | 14 | 17 |  |  | 
CCOC(=O)CC(=O)C1C(=O)c2ccc(S(=O)(=O)c3ccc4c(c3)C(=O)C(C(=O)CC(=O)OCC)C4=O)cc2C1=O (stereo not drawn) [Example 403, ethyl 3-(5-{[2-(3-ethoxy-3-oxopropanoyl)-1,3-dioxo-2,3-dihydro-1H-inden-5-yl]sulfonyl}-1,3-dioxo-2,3-dihydro-1H-inden-2-yl)-3-oxopropanoate] | 22 | 23 |  |  | 
CS(=O)(=O)N1CCC(NC(=O)C2C(=O)c3ccc(S(=O)(=O)c4ccc5c(c4)C(=O)C(C(=O)NC4CCN(S(C)(=O)=O)CC4)C5=O)cc3C2=O)CC1 (stereo not drawn) [Example 364, N-(1-methanesulfonylpiperidin-4-yl)-5-({2-[(1-methanesulfonylpiperidin-4-yl)carbamoyl]-1,3-dioxo-2,3-dihydro-1H-inden-5-yl}sulfonyl)-1,3-dioxo-2,3-dihydro-1H-indene-2-carboxamide] | 13 | 74 |  |  | 1.35
O=C(O)CCCC(=O)C1C(=O)c2ccc(-c3ccc4c(c3)C(=O)C(C(=O)CCCC(=O)O)C4=O)cc2C1=O (stereo not drawn) [Example 227, 5-[2′-(4-carboxybutanoyl)-1,1′,3,3′-tetraoxo-1H,1′H,2H, 2′H,3H,3′H-[5,5′-biinden]-2-yi]-5-oxopentanoic acid] |  |  |  |  | 1.8
O=C(O)CNC(=O)C1C(=O)c2ccc(Oc3ccc4c(c3)C(=O)C(C(=O)NCC(=O)O)C4=O)cc2C1=O (stereo not drawn) [Example 307, 2-{[5-({2-[(carboxymethyl)carbamoyl]-1,3-dioxo-2,3-dihydro-1H-inden-5-yl}oxy)-1,3-dioxo-2,3-dihydro-1H-inden-2-yl]formamido}acetic acid] | 15 | 47 |  |  | 
CC(C)(C)OC(=O)N1CCC[C@H]1C(=O)C1C(=O)c2ccc(-c3ccc4c(c3)C(=O)C(C(=O)[C@@H]3CCCN3C(=O)OC(C)(C)C)C4=O)cc2C1=O (stereo partly drawn) [Example 209, tert-butyl (2S)-2-{2′-[(2S)-1-[(tert-butoxy)carbonyl]pyrrolidine-2-carbonyl]-1,1′,3,3′-tetraoxo-1H,1′H,2H,2′H,3H,3′H-[5,5′-biindene]-2-carbonyl}pyrrolidine-1-carboxylate] |  |  | 75 | 96 | 4.2

Second part, the molecule after the results:

inhibition at 1 µM [%] | inhibition at 3 µM [%] | inhibition at 5 µM [%] | inhibition at 10 µM [%] | IC50 [µM] | SMILES
26 | 32 |  |  |  | CC(C)C[C@@H](N)C(=O)C1C(=O)c2ccc(C(=O)c3ccc4c(c3)C(=O)C(C(=O)[C@H](N)CC(C)C)C4=O)cc2C1=O (stereo partly drawn) [Example 354, 2-[(2R)-2-amino-4-methylpentanoyl]-5-{2-[(2R)-2-amino-4-methylpentanoyl]-1,3-dioxo-2,3-dihydro-1H-indene-5-carbonyl}-2,3-dihydro-1H-indene-1,3-dione]
 |  | 88 | 90 | 2.6 | CC(C)C(=O)NCC(=O)C1C(=O)c2ccc(C(=O)c3ccc4c(c3)C(=O)C(C(=O)CNC(=O)C(C)C)C4=O)cc2C1=O (stereo not drawn) [Example 187, 2-methyl-N-[2-(5-{2-[2-(2-methylpropanamido)acetyl]-1,3-dioxo-2,3-dihydro-1H-indene-5-carbonyl}-1,3-dioxo-2,3-dihydro-1H-inden-2-yl)-2-oxoethyl]propanamide]
29 | 63 |  |  | 3.96 | O=C(c1ccc2c(c1)C(=O)C(C(=O)NCC1CCOC1)C2=O)c1ccc2c(c1)C(=O)C(C(=O)NCC1CCOC1)C2=O (stereo not drawn) [Example 363, 5-(1,3-dioxo-2-{[(oxolan-3-yl)methyl]carbamoyl}-2,3-dihydro-1H-indene-5-carbonyl)-1,3-dioxo-N-[(oxolan-3-yl)methyl]-2,3-dihydro-1H-indene-2-carboxamide]
23 | 61 |  |  |  | CC(C)C[C@@H](N)C(=O)C1C(=O)c2ccc(S(=O)(=O)c3ccc4c(c3)C(=O)C(C(=O)[C@H](N)CC(C)C)C4=O)cc2C1=O (stereo partly drawn) [Example 355, 2-[(2R)-2-amino-4-methylpentanoyl]-5-({2-[(2R)-2-amino-4-methylpentanoyl]-1,3-dioxo-2,3-dihydro-1H-inden-5-yl}sulfonyl)-2,3-dihydro-1H-indene-1,3-dione]
 |  |  |  | 4.6 | Cc1ccccc1NC(=O)C1C(=O)c2ccc(C(=O)c3ccc4c(c3)C(=O)C(C(=O)Nc3ccccc3C)C4=O)cc2C1=O (stereo not drawn) [Example 81, N-(2-methylphenyl)-5-{2-[(2-methylphenyl)carbamoyl]-1,3-dioxo-2,3-dihydro-1H-indene-5-carbonyl}-1,3-dioxo-2,3-dihydro-1H-indene-2-carboxamide]
13 | 24 |  |  |  | NCC(=O)C1C(=O)c2ccc(C(=O)c3ccc4c(c3)C(=O)C(C(=O)CN)C4=O)cc2C1=O (stereo not drawn) [Example 327, 2-(2-aminoacetyl)-5-[2-(2-aminoacetyl)-1,3-dioxo-2,3-dihydro-1H-indene-5-carbonyl]-2,3-dihydro-1H-indene-1,3-dione]
 |  |  |  | 2.1 | O=C(c1ccc2c(c1)C(=O)C(C(=O)NCC1CC1)C2=O)c1ccc2c(c1)C(=O)C(C(=O)NCC1CC1)C2=O (stereo not drawn) [Example 76, N-(cyclopropylmethyl)-5-{2-[(cyclopropylmethyl)carbamoyl]-1,3-dioxo-2,3-dihydro-1H-indene-5-carbonyl}-1,3-dioxo-2,3-dihydro-1H-indene-2-carboxamide]
